According to US20060199211A1, “Fluorous-based microarrays” (priority 2005, published 2006):

Tests used:
[1] = target: T1, lectin from Arachis hypogaea (peanut, FITC-PNA) (Arachis hypogaea, UniProt P02872); test: Fluorous carbohydrate microarray screened with FITC-labeled peanut lectin (fluorescence scan at 488 nm); type: binding; details: carbohydrates 4-11 spotted (2 mM in 80% methanol/water) on fluorinated glass slide; FITC-PNA in PBS buffer (0.5 M), 30 min
T1 construct: purchased EY Laboratories, San Mateo, Calif
T1 sequence (P02872 24-273): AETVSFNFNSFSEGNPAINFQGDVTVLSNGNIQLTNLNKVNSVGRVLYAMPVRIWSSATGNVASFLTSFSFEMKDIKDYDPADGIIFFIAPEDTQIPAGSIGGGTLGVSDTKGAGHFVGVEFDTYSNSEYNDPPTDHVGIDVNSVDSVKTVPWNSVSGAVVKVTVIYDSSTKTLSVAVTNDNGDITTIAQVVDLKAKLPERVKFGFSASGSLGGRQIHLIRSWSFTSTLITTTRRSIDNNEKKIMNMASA
Procedure: (§1) With the fluorous-tagged carbohydrates in hand, the ability of the single C8F17 tail to anchor these mono- and disaccharides to a glass slide surface even after repeated washes was examined. The fluorous-tagged carbohydrates 4-11 were dissolved in 80% methanol/water and were spotted onto fluoroalkylsilane-derivatized glass slides employing a standard robot used for DNA arraying. The slides then were incubated for 30 minutes with the commercially available FITC (fluorescein isothiocyanate)-labeled lectins from Triticum vulgaris (wheat germ, FITC-WGA) in phosphate buffered saline (PBS buffer) (0.25 M) and Arachis hypogaea (peanut, FITC-PNA) in PBS buffer (0.5 M) and rinsed repeatedly with the assay buffer followed by distilled water. After drying, the slide was scanned with a standard fluorescent slide scanner at 488 nm to reveal the carbohydrate-binding specificities of these two lectins. As expected the wheat germ lectin WGA bound only to the fluorous-tagged N-acetylglucosamine (5). In contrast, the peanut lectin PNA bound to both galactose (7) and lactose (10) in the array experiment. This lectin is known to bind to galactose both alone and in the context of the lactose disaccharide. […]

[2] = tested on: lectin from Triticum vulgaris (wheat germ, FITC-WGA); test: Fluorous carbohydrate microarray screened with FITC-labeled wheat germ lectin (fluorescence scan at 488 nm); type: binding; details: carbohydrates 4-11 spotted (2 mM in 80% methanol/water) on fluorinated glass slide; FITC-WGA in PBS buffer (0.25 M), 30 min; WGA bound only to this one
Procedure: as §1

| SMILES | binding of peanut lectin PNA to arrayed fluorous-tagged carbohydrate [1] | binding of wheat germ lectin WGA to arrayed fluorous-tagged carbohydrate [2] |
| --- | --- | --- |
| OC[C@H]1O[C@@H](OCCCCOCCCC(F)(F)C(F)(F)C(F)(F)C(F)(F)C(F)(F)C(F)(F)C(F)(F)C(F)(F)F)[C@H](O)[C@@H](O)[C@H]1O [Compound 7] | bound |  |
| CC(=O)N[C@H]1[C@H](OCCCCOCCCC(F)(F)C(F)(F)C(F)(F)C(F)(F)C(F)(F)C(F)(F)C(F)(F)C(F)(F)F)O[C@H](CO)[C@@H](O)[C@@H]1O [Compound 5, 3-(perfluorooctyl)propanyloxybutanyl-2-deoxy-2-acylamino-β-D-glucopyranoside] |  | bound |
| OC[C@H]1O[C@@H](O[C@H]2[C@H](O)[C@@H](O)[C@H](OCCCCOCCCC(F)(F)C(F)(F)C(F)(F)C(F)(F)C(F)(F)C(F)(F)C(F)(F)C(F)(F)F)O[C@@H]2CO)[C@H](O)[C@@H](O)[C@H]1O [Compound 10] | bound |  |
